Target: T1, recombinant wild-type human asparagine synthetase (ASNS) (Homo sapiens, UniProt P08243)
T1 sequence (P08243 2-561): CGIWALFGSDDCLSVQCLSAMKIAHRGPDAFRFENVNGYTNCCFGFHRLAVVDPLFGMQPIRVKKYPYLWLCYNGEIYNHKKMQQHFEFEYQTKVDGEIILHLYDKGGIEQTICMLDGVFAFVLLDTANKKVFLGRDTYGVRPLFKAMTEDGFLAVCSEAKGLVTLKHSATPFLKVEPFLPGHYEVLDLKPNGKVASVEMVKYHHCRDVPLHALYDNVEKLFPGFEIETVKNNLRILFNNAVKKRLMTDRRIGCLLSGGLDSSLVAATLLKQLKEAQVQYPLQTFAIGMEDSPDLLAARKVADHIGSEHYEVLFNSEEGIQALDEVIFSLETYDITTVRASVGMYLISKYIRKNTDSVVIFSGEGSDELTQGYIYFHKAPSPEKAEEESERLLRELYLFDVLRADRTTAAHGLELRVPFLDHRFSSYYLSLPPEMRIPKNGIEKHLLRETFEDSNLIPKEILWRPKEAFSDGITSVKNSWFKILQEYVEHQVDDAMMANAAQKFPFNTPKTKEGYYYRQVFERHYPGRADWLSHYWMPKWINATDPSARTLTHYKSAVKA
Assay: PPi production, continuous NADH-coupled assay
Type: biochemical

Ki: 0.4 nM
Structure (SMILES): CC[C@H](N)C(=O)N1C[C@@H](c2ccc(F)cc2)[C@H](O)[C@@H]1C(=O)NC(c1ccccc1)c1ccccc1 [ASX-173]

Reference: article doi:10.1101/2025.07.03.662851v1 (biorxiv, 2025)
